Experimental data reported in publication PMC7985170, “Marine Peptide-N6NH2 and Its Derivative-GUON6NH2 Have Potent Antimicrobial Activity Against Intracellular Edwardsiella tarda in vitro and in vivo” (Frontiers in Microbiology, 2021).
In brackets after ≈: the same amount, converted by molar mass. Where a SMILES comes first, the peptide text is derived from it. Bridges are numbered along the chain shown (N, C = ends).

Columns and labels:
[1] = type: cell-based, Streptococcus enteritidis
Method: (§1) The antimicrobial activity of peptides was determined by the microbroth dilution method ([Zhang et al., 2014]). The bacterial strains were incubated in Mueller-Hinton (MH) medium at 28°C or 37°C overnight. Bacteria (1 × 10^5 CFU/mL) were added into 96-well plates, followed by the addition of serial dilutions of peptides (from 0.0625 to 128 μg/mL). The plates were incubated at 37°C for 18–24 h. The minimal inhibitory concentration (MIC) value was determined as the lowest peptide concentration at which no bacterial growth was observed.

[2] = system: E. coli CVCC25922; type: cell-based, Escherichia coli
Method: as §1

[3] = system: E. coli CVCC1515; type: cell-based, Escherichia coli
Method: as §1

[4] = system: Gram-positive bacteria; experiment: Geometric mean of MICs and therapeutic index; type: cell-based
Method: as §1
(§2) The geometric mean (GM) of MICs of peptides against Gram-negative and Gram-positive bacteria was calculated, and the result was shown in Table 3. […] For Gram-negative bacteria, the TI value of GUON6NH2 (53.33) was very close to N6NH2 (58.18), while for positive bacteria, the TI value of GUON6NH2 (12.8) was slightly higher than that of N6NH2 (12.31), indicating their huge therapeutic potential. For Gram-positive bacteria, DN6NH2 had the highest TI value and the best therapeutic potential.

[5] = system: Gram-negative bacteria; experiment: Geometric mean of MICs and therapeutic index; type: cell-based
Method: as §1, §2

[6] = system: Gram-negative and Gram-positive bacteria (ALL); experiment: Geometric mean of MICs and therapeutic index; type: cell-based
Method: as §1, §2

[7] = system: E. tarda; experiment: Time-killing curve; type: cell-based, Edwardsiella tarda
Method: Time-killing curve of peptides was performed according to the previous method ([Flamm et al., 2019]). E. tarda was cultured to logarithmic phase, diluted in Mueller Hinton broth (MHB) (1 × 10^5 CFU/mL) containing 1×, 2×, or 4× MIC of peptides, and cultured at 28°C (200 rpm). PBS was added as a control. Bacterial samples (100 μL) were removed at different time intervals (0, 0.5, 1, 1.5, 2, 4, 6, 8, 10, 12, 22, and 24 h) and were counted on MH solid plates. The time-killing curves of peptides were plotted. Bacterial cells treated with 2× MIC norfloxacin and without treatment were used as the positive and blank controls, respectively.

[8] = system: S. aureus ATCC546; type: cell-based, Staphylococcus aureus
Method: as §1

[9] = system: S. aureus ATCC25923; type: cell-based, Staphylococcus aureus
Method: as §1

[10] = system: LPS; experiment: LPS binding, BODIPY-TR-cadaverine (BC) probe displacement; details: 0.5 μM LPS, 5 μM BC, Tris buffer pH 7.4; peptides 0.049 to 50 μM
Method: The BODIPY’-TR-cadaverine (BC) probe was used to determine the ability of peptides to bind to LPS ([Wang et al., 2020]). 0.5 μM LPS was incubated with 5 μM BC in […] Tris buffer (pH 7.4) for 4 h at 37°C. Subsequently, the peptides were added into the mixture and the final concentrations of peptides ranged from 0.049 to 50 μM. Ampicillin was used as the negative control. Changes in fluorescence were measured by a fluorescence spectrophotometry at room temperature (excitation/emission, 580/620 nm).

[11] = system: murine erythrocytes; type: cell-based, mouse
Method: The hemolysis of peptides was evaluated by determining the amount of hemoglobin that was released from fresh mouse erythrocytes ([Flamm et al., 2019]). The blood cells were washed three times with 10 mM PBS (pH 7.4) and centrifuged for 10 min (1,500 rpm). Erythrocyte solution (8%, v/v) was mixed with peptide solutions (1:1) and incubated for 1 h at 37°C. The mixture was then centrifuged for 5 min (1,500 rpm), and the absorbance of supernatants was measured at 540 nm. Values of 0 and 100% hemolysis were determined in PBS and 0.1% triton X-100, respectively. The hemolysis of peptides was calculated using the following formula: Hemolysis (%) = [(Abs treated sample – Abs negative control)/(Abs positive control – Abs negative control)] × 100.

[12] = system: inner membrane of E. tarda; experiment: Inner membrane penetration, PI staining by flow cytometry; type: cell-based, Edwardsiella tarda; details: 1× MIC, 5–30 min at 37°C, 1 × 10^8 CFU/mL
Method: Mid-log phase E. tarda cells (1 × 10^8 CFU/mL) were incubated with or without 1× MIC peptides solutions at 37°C for 5, 15, and 30 min, respectively. After washing twice with PBS, bacterial cells were then incubated with 50 μg/mL propidium iodide (PI) for 15 min and analyzed using a FACS Calibur Flow Cytometer (BD, United States) ([Stearns-Kurosawa et al., 2011]).

[13] = system: S. hyicus 15095; type: cell-based, Staphylococcus hyicus
Method: as §1

[14] = system: E. tarda; experiment: SEM and TEM morphology; type: cell-based, Edwardsiella tarda; details: 4× MIC, 2 h
Method: To further characterize the bactericidal effects of the peptides, scanning electron microscopy (SEM) and transmission electron microscopy (TEM) were used to visualize morphological changes ([Yang et al., 2019]). E. tarda was cultured to logarithmic growth stage (10^8 CFU/mL) and diluted with 0.01 M PBS (pH 7.4) to OD600 nm = 1. E. tarda cells were treated with 4× MIC peptides at 37°C for 2 h and the untreated cells were used as the control. Briefly, after centrifugation, the bacterial cells were washed three times with 0.1 M PBS (pH 7.2) and fixed overnight at 4°C with 2.5% glutaraldehyde. After washing again, the cells were fixed with 1% osmium tetroxide (OsO4) for 2 h and dehydrated in a graded ethanol series (50%–70%–85%–95% × 2–100%, × 2) for 15 min, respectively. The samples were then dried by CO2, sputtered with gold-palladium, and observed on a QUANTA200 SEM (FEI, Philips, Netherlands).
E. tarda cells were treated peptides before fixation as described above. The bacteria were washed with 0.01 M PBS (pH 7.4) for five times, 7 min each time, and fixed with 1% osmium acid buffer (4°C) for 1 h. After dehydration with a graded acetone series (30%–50%–70%–85%–95%–100% × 3), the cells were immersed in mixtures of acetone and resin (3:1, 1:1 and 1:3, respectively) for 40 min and in a pure epoxy resin overnight. The samples were then embedded in embedding medium and polymerized at 45°C for 3 h and at 65°C for 24 h, respectively. The sections were prepared using an ultramicrotome, stained with 1% uranyl acetate, and visualized by a JEM1400 (JEDL, Tokyo, Japan).

[15] = system: Staphylococcus hyicus 437-2; type: cell-based
Method: as §1

[16] = system: Edwardsiella tarda; type: cell-based
Method: as §1

[17] = system: Salmonella typhimurium CVCC533; type: cell-based; details: murium CVCC533
Method: as §1

[18] = system: Salmonella pullorum CVCC1802; type: cell-based
Method: as §1

[19] = system: Staphylococcus aureus ATCC43300; type: cell-based
Method: as §1

[20] = system: Escherichia coli CVCC195; type: cell-based
Method: as §1

[21] = system: S. pullorum CVCC1789; type: cell-based, Salmonella pullorum
Method: as §1

[22] = system: S. typhimurium ATCC14028; type: cell-based, Salmonella typhimurium
Method: as §1

[23] = system: E. tarda; experiment: Mouse peritonitis model, survival; type: in vivo; details: 1 μmoL/kg i.p. at 1 h postinfection, ICR mice, 5 days
Method: To establish a peritonitis mouse model, six-week-old female ICR mice (five mice/group) were intraperitoneally injected with E. tarda (1 × 10^9 CFU/mL, 0.5 mL). The infected mice were followed by the intraperitoneal injection of N6NH2, GUON6NH2 or norfloxacin (1 μmol/kg of body weight, 0.2 mL) at 1 h postinfection, respectively. Mice injected with only bacteria or PBS were used as negative or blank controls. The survival of mice was recorded daily for 5 days.

[24] = system: E. tarda; experiment: Post-antibiotic effect (PAE); type: cell-based, Edwardsiella tarda; details: 2 h exposure, E. tarda, 28°C, n = 3
Method: E. tarda cells were incubated with peptides (1×, 2×, or 4× MIC) for 2 h, diluted, and cultured at 28°C and 200 rpm. An aliquot of samples (50 μL) were taken for CFU counts at different time intervals until bacterial cultures became turbid. Bacteria treated with the N6NH2, GUON6NH2 or vancomycin were used as the positive control; bacteria without treatment were used as the blank control. The PAE was calculated using the following formula: PAE = T–C, where T is the time for the CFU counts to increase by 10-fold above the count observed immediately after drug removal, and C is the corresponding time for the untreated control ([Oh et al., 2019]).

[25] = system: E. tarda; experiment: Mouse peritonitis model, bacterial counts in peritoneal fluid; type: in vivo; details: 1 μmol/kg i.p.
Method: The mice were intraperitoneally infected with E. tarda (1 × 10^9 CFU/mL, 0.5 mL) and then injected with N6NH2 and GUON6NH2 (1 μmol/kg) or PBS (the blank control) in the same way at 1 h after infection. The mice were then killed at 24 h after treatment, and peritoneal fluids were obtained by washing with 5 mL of ice-cold PBS. The total number of E. tarda in the fluids was determined before any further procedures. For intracellular bacteria quantification, the other fraction was centrifuged for 5 min at 4°C (1,000 rpm). The cells were collected, treated with 1,000 μg/mL gentamicin for 30 min at 37°C to kill extracellular bacteria, and washed with ice-cold PBS twice to remove extracellular gentamicin. Subsequently, the cells were lysed and the bacteria were counted as described above for the in vitro experiment ([Kim et al., 2011]).

[26] = therapeutic index (TI), cell selectivity

## CC(C)[C@H](N)C(=O)N[C@@H](Cc1ccccc1)C(=O)N[C@@H](C)C(=O)N[C@@H](Cc1c[nH]c2ccccc12)C(=O)N[C@@H](CC(N)=O)C(=O)N[C@H](C(=O)N[C@H]1CSSC[C@@H](C(=O)N[C@@H](Cc2c[nH]cn2)C(=O)N[C@@H](CCCNC(=N)N)C(=O)N[C@@H](CCCNC(=N)N)C(=O)N[C@@H](C)C(=O)N[C@@H](CC(N)=O)C(N)=O)NC(=O)[C@H](C(C)C)NC(=O)[C@H](CCCNC(=N)N)NC(=O)[C@H](C(C)C)NC(=O)[C@H](C(C)C)NC(=O)[C@H](CC(N)=O)NC(=O)[C@H](CCCNC(=N)N)NC(=O)[C@H](Cc2ccc(O)cc2)NC(=O)[C@H](C(C)C)NC1=O)C(C)C [V112N6NH2] (H-VFAWNVCVYRNVVRVCHRRAN-NH2; disulfide 7-16 (inferred); N-terminus assumed)
[1]
  MIC: 2 µg/mL (≈ 0.782 µM)
[2]
  MIC: 8 µg/mL (≈ 3.13 µM)
[3]
  MIC: 4 µg/mL (≈ 1.56 µM)
[4]; geometric mean (GM) of MICs against Gram-positive bacteria
  GM Gram-positive bacteria: 25.6 µg/mL
[4]; [26]
  TI Gram-positive bacteria: 10
[5]; geometric mean (GM) of MICs against Gram-negative bacteria
  GM Gram-negative bacteria: 11.8 µg/mL
[5]; [26]
  TI Gram-negative bacteria: 21.69
[6]; geometric mean (GM) of MICs, all strains
  GM ALL: 16.4 µg/mL
[6]; [26]
  TI ALL: 15.61
[7]; 2× or 4× MIC, MHB, 1 × 10^5 CFU/mL, 28°C
  time to completely kill E. tarda: ≤ 6 h
[8]
  MIC: 16 µg/mL (≈ 6.25 µM)
[9]
  MIC: 32 µg/mL (≈ 12.5 µM)
[10]
  ability to bind to LPS (BC probe displacement): V112N6NH2 > GUON6NH2 > N6NH2 > DN6NH2 > N6PNH2
[11]
  MHC: >128 µg/mL
[12]
  penetration rate (PI-stained cells): 0.85–30.1%
[13]
  MIC: 16 µg/mL (≈ 6.25 µM)
[14]
  morphological changes by SEM: some protrusions were observed on the cell surfaces
[15]
  MIC: 32 µg/mL (≈ 12.5 µM)
[16]
  MIC: 32 µg/mL (≈ 12.5 µM)
[17]
  MIC: 16 µg/mL (≈ 6.25 µM)
[18]
  MIC: 8 µg/mL (≈ 3.13 µM)
[19]
  MIC: 32 µg/mL (≈ 12.5 µM)
[20]
  MIC: 8 µg/mL (≈ 3.13 µM)
[21]
  MIC: 16 µg/mL (≈ 6.25 µM)
[22]
  MIC: 16 µg/mL (≈ 6.25 µM)

## CCn1cc(C(=O)O)c(=O)c2cc(F)c(N3CCNCC3)cc21 [norfloxacin, reference compound]
[7]; 2× MIC
  time of bacterial re-growth: 12 h
[23]
  survival rate of mice: 40%
[24]; 1× MIC
  PAE: 2.65 h
[24]; 2× MIC
  PAE: 3.48 h
[24]; 4× MIC
  PAE: 3.12 h
[10]
  ability to bind to LPS (BC probe displacement): did not replace BC probe to bind to LPS
[25]; peritoneal fluid 24 h after treatment
  decrease of total numbers of bacteria: 0.49 Log10 CFU
[25]; peritoneal fluid cells 24 h after treatment
  reduction of intracellular bacteria: 0.35 Log10 CFU
[14]
  morphological changes by SEM: no significant change in the bacterial cell structures
  ultrastructure changes by TEM: no significant change in bacterial cells
